This experiment concerns the target Casein kinase II subunit alpha (Homo sapiens, UniProt P68400). In words: Inhibition of N-terminal GST-fusion protein tagged full length human CK2alpha1 (1 to 391 residues) expressed in baculovirus expression system co-expressing human His-tagged CK2beta using CK2tide as substrate incubated for 1 hrs in presence of ATP by off-chip mobility shift assay.
Casein kinase II subunit alpha, sequence (P68400 whole entry, the tested form may be a part): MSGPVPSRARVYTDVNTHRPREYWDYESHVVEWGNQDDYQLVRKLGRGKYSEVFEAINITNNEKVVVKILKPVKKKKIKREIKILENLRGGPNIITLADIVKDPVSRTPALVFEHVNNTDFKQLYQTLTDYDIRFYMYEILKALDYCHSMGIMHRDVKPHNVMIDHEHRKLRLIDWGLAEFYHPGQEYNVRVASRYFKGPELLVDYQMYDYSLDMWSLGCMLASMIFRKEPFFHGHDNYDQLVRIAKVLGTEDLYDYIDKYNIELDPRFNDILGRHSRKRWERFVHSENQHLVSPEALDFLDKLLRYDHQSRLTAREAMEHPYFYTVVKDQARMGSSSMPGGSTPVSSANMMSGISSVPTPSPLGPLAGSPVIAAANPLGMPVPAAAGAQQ
Turning to `NC(=O)c1nc(-c2cccc(C(=O)O)c2)nc2c1[nH]c(=O)n2-c1ccc([N+](=O)[O-])cc1`, the IC50 came to 0.38 µM. In the case of `N#Cc1ccc(-n2c(=O)[nH]c3c(C(N)=O)nc(-c4ccc(C(=O)O)cc4)nc32)cc1`, the IC50 was more than 30 µM. `NC(=O)c1nc(/C=C/C(=O)O)nc2c1[nH]c(=O)n2-c1ccccc1`: the half-maximal inhibitory concentration (IC50) is 1 µM. For `NC(=O)c1nc(CC(=O)O)nc2c1[nH]c(=O)n2-c1ccccc1`, the IC50 is more than 30 µM. As to `NC(=O)c1nc(CCCC(=O)O)nc2c1[nH]c(=O)n2-c1ccccc1`, the IC50 is more than 30 µM. With `N#Cc1ccc(-n2c(=O)[nH]c3c(C(N)=O)nc(-c4cccc(C(=O)O)c4)nc32)cc1` the figure was 0.4 µM; with `NC(=O)c1nc(CCC(=O)O)nc2c1[nH]c(=O)n2-c1ccccc1`, 15 µM; with `NC(=O)c1nc(C(=O)O)nc2c1[nH]c(=O)n2-c1ccccc1`, more than 30 µM. Take `Cc1ccc(-n2c(=O)[nH]c3c(C(N)=O)nc(-c4ccc(C(=O)O)cc4)nc32)cc1`: the IC50 stood at 11 µM.

Regarding `Cc1ccc(-n2c(=O)[nH]c3c(C(N)=O)nc(-c4cccc(C(=O)O)c4)nc32)cc1`, the 50% inhibitory concentration (IC50) turned out to be 0.62 µM.

Take `NC(=O)c1nc(-c2ccc(C(=O)O)cc2)nc2c1[nH]c(=O)n2-c1ccccc1`: the IC50 worked out at 14 µM. Consider `NC(=O)c1nc(-c2ccc(C(=O)O)cc2)nc2c1[nH]c(=O)n2-c1ccc(Cl)cc1`, for which the IC50 is more than 30 µM.

Take `NC(=O)c1nc(-c2cccc(C(=O)O)c2)nc2c1[nH]c(=O)n2-c1ccc(Cl)cc1`: the IC50 worked out at 5.4 µM. `NC(=O)c1nc(-c2ccc(C(=O)O)cc2)nc2c1[nH]c(=O)n2-c1ccc([N+](=O)[O-])cc1`: the IC50 is more than 30 µM. As to `COc1cccc(-n2c(=O)[nH]c3c(C(N)=O)nc(-c4ccc(C(=O)O)cc4)nc32)c1`, the IC50 came to 18 µM. In the case of `COc1ccc(-n2c(=O)[nH]c3c(C(N)=O)nc(-c4cccc(C(=O)O)c4)nc32)cc1`, the IC50 worked out at 2.6 µM. On to `CN(C)c1ccc(-n2c(=O)[nH]c3c(C(N)=O)nc(-c4ccc(C(=O)O)cc4)nc32)cc1`, for which the IC50 amounted to 4.3 µM. For the compound `NC(=O)c1nc(-c2cccc(C(=O)O)c2)nc2c1[nH]c(=O)n2-c1ccc(F)cc1`, the IC50 was found to be 0.18 µM. As to `NC(=O)c1nc(-c2cccc(C(=O)O)c2)nc2c1[nH]c(=O)n2-c1ccccc1`, the IC50 was 1 µM. Regarding `NC(=O)c1nc(-c2ccc(C(=O)O)cc2)nc2c1[nH]c(=O)n2-c1ccc(F)cc1`, the IC50 is more than 30 µM. As for `COc1cccc(-n2c(=O)[nH]c3c(C(N)=O)nc(-c4cccc(C(=O)O)c4)nc32)c1`, the IC50 was 1.9 µM. `COc1ccc(-n2c(=O)[nH]c3c(C(N)=O)nc(-c4ccc(C(=O)O)cc4)nc32)cc1`: the half-maximal inhibitory concentration (IC50) was 9.4 µM.

For orientation: IC50 means the concentration needed to halve the response being measured.

For the origin of these results see ChEMBL document CHEMBL5385963, “Enhanced inhibitory activity of compounds containing purine scaffolds compared to protein kinase CK2α considering crystalline water” (RSC Med Chem, 2024).
